Data from ChEMBL document CHEMBL1201862, “PubChem BioAssay data set” (2004).
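Where inhibition never reached the appropriate level, the endpoint shown equals the highest concentration tested. Otherwise, values were interpolated linearly from a five-concentration, 48-hour dose response in 96-well plates. At the GI50, growth is halved.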 Activity calls are given as the source filed them. Rule as the data show it: active = GI50 up to about 1.1 µM and inactive = higher.

Tests used:
Experiment in all cases: DTP human tumour cell line panel, 48 h
LOX IMVI = system: LOX IMVI
OVCAR-4 = system: OVCAR-4
SF-295 = system: SF-295
BT-549 = system: BT-549
OVCAR-5 = system: OVCAR-5
786-0 = system: 786-0
Hs-578T = system: Hs-578T
ACHN = system: ACHN
SN12C = system: SN12C
MDA-N = system: MDA-N
U-251 = system: U-251
MDA-MB-231 = system: MDA-MB-231
SR = system: SR
NCI-H460 = system: NCI-H460
SK-MEL-28 = system: SK-MEL-28
MOLT-4 = system: MOLT-4
CAKI-1 = system: CAKI-1
RPMI-8226 = system: RPMI-8226
HCT-116 = system: HCT-116
M19-MEL = system: M19-MEL

Structure (SMILES): C=C(C)[C@H]1CC(=O)/C(C)=C\CC/C(C)=C/CC[C@@]2(C)O[C@@H]2C1
- GI50 (LOX IMVI): 10.9 µM (inactive)
- GI50 (OVCAR-4): 22 µM (inactive)
- GI50 (SF-295): 34.3 µM (inactive)
- GI50 (BT-549): 47.6 µM (inactive)
- GI50 (OVCAR-5): 35.4 µM (inactive)
- GI50 (786-0): 47.5 µM (inactive)
- GI50 (Hs-578T): 30.9 µM (inactive)
- GI50 (ACHN): 29.4 µM (inactive)
- GI50 (SN12C): 20.8 µM (inactive)
- GI50 (MDA-N): 35.2 µM (inactive)
- GI50 (U-251): 22.5 µM (inactive)
- GI50 (MDA-MB-231): 34.2 µM (inactive)
- GI50 (SR): 25.4 µM (inactive)
- GI50 (NCI-H460): 16.8 µM (inactive)
- GI50 (SK-MEL-28): 19.2 µM (inactive)
- GI50 (MOLT-4): 31.8 µM (inactive)
- GI50 (CAKI-1): 1.99 µM (inactive)
- GI50 (RPMI-8226): 20.7 µM (inactive)
- GI50 (HCT-116): 16 µM (inactive)

Structure (SMILES): O=C(O)CCNS(=O)(=O)c1ccc([N+](=O)[O-])cc1
- GI50 (LOX IMVI): > 100 µM (inactive)
- GI50 (OVCAR-4): > 100 µM (inactive)
- GI50 (SF-295): > 100 µM (inactive)
- GI50 (OVCAR-5): > 100 µM (inactive)
- GI50 (786-0): > 100 µM (inactive)
- GI50 (M19-MEL): > 100 µM (inactive)
- GI50 (ACHN): > 100 µM (inactive)
- GI50 (SN12C): > 100 µM (inactive)
- GI50 (U-251): > 100 µM (inactive)
- GI50 (NCI-H460): > 100 µM (inactive)
- GI50 (SK-MEL-28): > 100 µM (inactive)
- GI50 (MOLT-4): > 100 µM (inactive)
- GI50 (CAKI-1): > 100 µM (inactive)
- GI50 (RPMI-8226): > 100 µM (inactive)

Structure (SMILES): COc1ccc2[nH]c3c(C)c4ccnc(NCCCN(C)CCCNC(=O)NCCCN(C)CCCNc5nccc6c(C)c7[nH]c8ccc(OC)cc8c7c(C)c56)c4c(C)c3c2c1
- GI50 (LOX IMVI): 0.855 µM (active)
- GI50 (OVCAR-4): 0.596 µM (active)
- GI50 (SF-295): 0.566 µM (active)
- GI50 (BT-549): 1.62 µM (inactive)
- GI50 (OVCAR-5): 0.843 µM (active)
- GI50 (786-0): 0.233 µM (active)
- GI50 (Hs-578T): 0.977 µM (active)
- GI50 (ACHN): 0.352 µM (active)
- GI50 (SN12C): 0.269 µM (active)
- GI50 (MDA-N): 0.748 µM (active)
- GI50 (U-251): 0.205 µM (active)
- GI50 (MDA-MB-231): 0.403 µM (active)
- GI50 (SR): 0.102 µM (active)
- GI50 (NCI-H460): 0.348 µM (active)
- GI50 (SK-MEL-28): 1.48 µM (inactive)
- GI50 (MOLT-4): 0.236 µM (active)
- GI50 (CAKI-1): 0.716 µM (active)
- GI50 (RPMI-8226): 0.564 µM (active)
- GI50 (HCT-116): 0.208 µM (active)

Structure (SMILES): CCO/C=C\C12CCCC1NC(c1ccccc1)(c1ccccc1)O2 (stereo unspecified)
- GI50 (OVCAR-4): 35.8 µM (inactive)
- GI50 (SF-295): 32.7 µM (inactive)
- GI50 (OVCAR-5): 16.5 µM (inactive)
- GI50 (786-0): 32.7 µM (inactive)
- GI50 (M19-MEL): 24.7 µM (inactive)
- GI50 (ACHN): 30.3 µM (inactive)
- GI50 (SN12C): 25.7 µM (inactive)
- GI50 (U-251): 33.3 µM (inactive)
- GI50 (NCI-H460): 48.8 µM (inactive)
- GI50 (SK-MEL-28): 40.5 µM (inactive)
- GI50 (MOLT-4): 19.2 µM (inactive)
- GI50 (CAKI-1): 23.3 µM (inactive)
- GI50 (HCT-116): 30.7 µM (inactive)

Structure (SMILES): O=C(NCCCCl)c1c(O)c2ccccc2[nH]c1=O
- GI50 (LOX IMVI): > 100 µM (inactive)
- GI50 (OVCAR-4): > 100 µM (inactive)
- GI50 (SF-295): > 48.9 µM (inactive)
- GI50 (BT-549): > 78 µM (inactive)
- GI50 (OVCAR-5): > 100 µM (inactive)
- GI50 (786-0): > 61 µM (inactive)
- GI50 (Hs-578T): > 56.8 µM (inactive)
- GI50 (ACHN): > 100 µM (inactive)
- GI50 (SN12C): > 100 µM (inactive)
- GI50 (MDA-N): > 100 µM (inactive)
- GI50 (U-251): > 100 µM (inactive)
- GI50 (MDA-MB-231): > 100 µM (inactive)
- GI50 (SR): > 100 µM (inactive)
- GI50 (NCI-H460): > 100 µM (inactive)
- GI50 (SK-MEL-28): > 100 µM (inactive)
- GI50 (MOLT-4): > 100 µM (inactive)
- GI50 (CAKI-1): > 100 µM (inactive)
- GI50 (RPMI-8226): > 100 µM (inactive)
- GI50 (HCT-116): > 100 µM (inactive)

Structure (SMILES): CCCCCCCCCCCCCCC(O)C[N+](C)(CCO)CCO (stereo unspecified)
- GI50 (LOX IMVI): 1.48 µM (inactive)
- GI50 (OVCAR-4): 3.73 µM (inactive)
- GI50 (SF-295): 2.25 µM (inactive)
- GI50 (BT-549): 3.05 µM (inactive)
- GI50 (OVCAR-5): 2.46 µM (inactive)
- GI50 (786-0): 1.98 µM (inactive)
- GI50 (Hs-578T): 2.17 µM (inactive)
- GI50 (ACHN): 6.01 µM (inactive)
- GI50 (SN12C): 4.7 µM (inactive)
- GI50 (MDA-N): 5.86 µM (inactive)
- GI50 (U-251): 1.53 µM (inactive)
- GI50 (MDA-MB-231): 1.14 µM (inactive)
- GI50 (SR): 1.92 µM (inactive)
- GI50 (NCI-H460): 2.56 µM (inactive)
- GI50 (SK-MEL-28): 9.79 µM (inactive)
- GI50 (MOLT-4): 1.91 µM (inactive)
- GI50 (CAKI-1): 1.32 µM (inactive)
- GI50 (RPMI-8226): 1.92 µM (inactive)
- GI50 (HCT-116): 5.79 µM (inactive)

Structure (SMILES): Cc1cccc(C2ON=C(c3ccccc3)N2C23CC4CC(CC(C4)C2)C3)c1 (stereo unspecified)
- GI50 (LOX IMVI): > 10 µM (inactive)
- GI50 (OVCAR-4): > 10 µM (inactive)
- GI50 (SF-295): > 10 µM (inactive)
- GI50 (BT-549): > 10 µM (inactive)
- GI50 (OVCAR-5): > 10 µM (inactive)
- GI50 (786-0): > 10 µM (inactive)
- GI50 (Hs-578T): > 10 µM (inactive)
- GI50 (ACHN): > 10 µM (inactive)
- GI50 (SN12C): > 10 µM (inactive)
- GI50 (MDA-N): > 10 µM (inactive)
- GI50 (U-251): > 10 µM (inactive)
- GI50 (MDA-MB-231): > 10 µM (inactive)
- GI50 (SR): > 10 µM (inactive)
- GI50 (NCI-H460): > 10 µM (inactive)
- GI50 (SK-MEL-28): > 10 µM (inactive)
- GI50 (MOLT-4): > 10 µM (inactive)
- GI50 (CAKI-1): > 10 µM (inactive)
- GI50 (RPMI-8226): > 10 µM (inactive)
- GI50 (HCT-116): > 10 µM (inactive)

Structure (SMILES): O=C(O)c1cc2ccccc2c(O)c1O
- GI50 (LOX IMVI): 3.52 µM (inactive)
- GI50 (OVCAR-4): 19 µM (inactive)
- GI50 (SF-295): 15.3 µM (inactive)
- GI50 (BT-549): 16.1 µM (inactive)
- GI50 (OVCAR-5): 16.9 µM (inactive)
- GI50 (786-0): 14.3 µM (inactive)
- GI50 (Hs-578T): 8.13 µM (inactive)
- GI50 (ACHN): 16.9 µM (inactive)
- GI50 (SN12C): 16.6 µM (inactive)
- GI50 (MDA-N): 2.14 µM (inactive)
- GI50 (U-251): 16.8 µM (inactive)
- GI50 (MDA-MB-231): 17.7 µM (inactive)
- GI50 (SR): > 45.4 µM (inactive)
- GI50 (NCI-H460): 22.9 µM (inactive)
- GI50 (SK-MEL-28): 7.03 µM (inactive)
- GI50 (MOLT-4): 27.5 µM (inactive)
- GI50 (CAKI-1): 17.3 µM (inactive)
- GI50 (RPMI-8226): > 52.2 µM (inactive)
- GI50 (HCT-116): 16.8 µM (inactive)
